Data as given in patent US20220313694A1, “REDUCED CALORIC INTAKE AND ANTICANCER AGENTS FOR THE TREATMENT OF CANCER” (IFOM FONDAZIONE ISTITUTO FIRC DI ONCOLOGIA MOLECOLARE, priority 2021, published 2022).

What was measured:
SUM159 tumour masses = test: Ex vivo mammosphere forming assay on SUM159 tumour masses; format: cell-based, human
SUM159 xenografts = test: Growth of SUM159 xenografts in NOD scid gamma (NSG) mice; details: agent combined with FMD cycles, compared with FMD or drug alone
4T1 cells = test: In vitro sphere forming assay, 4T1 cells under CTR/STS; format: cell-based, mouse; details: STS (0.5 g/l glucose, 1% FBS), 48 h; agent added (8-Br-cAMP; glucose 1 g/l)
[1] = test system: SUM159 tumour cells derived from in vivo xenografts; test: Limiting dilution assay in recipient NSG mice; set-up: species or system human
4T1-luc cells = test: Growth of 4T1-luc cells in the mammary fat pad of Balb-c mice; format: in vivo, mouse; details: 2DG once a day i.p. combined with 4 cycles of FMD
[2] = test system: 4T1 tumour masses (CD44highCD24low subpopulation); test: CD44CD24 flow cytometry of 4T1 tumour masses; format: in vivo, mouse; details: 2DG combined with FMD
Description: Cells were harvested and washed in PBS 1% BSA and pellets were resuspended in blocking buffer (PBS 10% BSA) and incubated for 30 min at 4° C. light protected. After a wash in PBS 1% BSA, cells were incubated with antibodies solution (200 μl/1×10^6 cells) for 45 min at 4° C. […] SUM159 samples were analysed by flow cytometry with Attune NxT flow cytometer and data were processed by Kaluza analysis software (Beckman coulter, version 2.0). 4T1 samples were analysed by flow cytometry with FACSCalibur (BD) and data were processed by FlowJo software.

[3] = tumour masses from mice treated with drug under AL diet
[4] = tumour masses from mice treated with agent combined with FMD cycles

Row | Structure (SMILES) | number of ex vivo mammospheres (sphere formation) (SUM159 tumour masses; [3]) | tumor progression / anti-tumor activity (SUM159 xenografts) | number of ex vivo mammospheres (sphere formation) (SUM159 tumour masses; [4]) | in vitro sphere formation (4T1 cells) | time tumor formation was prevented ([1]; donor mice 2DG + FMD, 1,000 cells dilution level) | mouse survival in the limiting dilution assay ([1]; donor mice treated with 2DG + FMD) | tumor progression (4T1-luc cells) | CSCs (CD44 and CD24 expression) [2]
1 | O=C(Oc1cccc(F)c1OC(=O)c1cccc(O)c1)c1cccc(O)c1 [WZB117] | mimicked the effect of FMD on reducing the number of spheres formation | did not potentiate the anti-tumor activity of FMD | – | – | – | – | – | –
2 | OC[C@H]1OC(O)[C@H](O)[C@@H](O)[C@@H]1O (stereo partly drawn) [glucose] | – | partially reversed the FMD effects on tumor progression | completely rescued the FMD-dependent reduction of mammospheres | reversed the STS effect on 4T1 sphere formation | – | – | – | –
3 | Nc1ncnc2c1nc(Br)n2[C@@H]1O[C@@H]2COP(=O)(O)O[C@H]2[C@H]1O [8-Br-cAMP, 8-Bromoadenosine 3′,5′-cyclic mono-phosphate] | – | – | – | reversed fasting/STS-dependent spheres reduction | – | – | – | –
4 | O=CC[C@@H](O)[C@H](O)[C@H](O)CO [2DG, 2-Deoxy-D-Glucose] | did not have any effect under AL conditions | potentiated the effect of FMD both in delaying tumor progression | decreasing the number of mammospheres derived by tumor masses, even after a multiple serial propagation | – | more than 150 days | potentiated the effect of FMD in increasing mouse survival compared to 2DG and FMD alone | potentiated the effect of FMD both in delaying tumor progression | reducing CSCs
5 | CN(C)C(=N)N=C(N)N [metformin] | reduced tumor growth and sphere formation | did not show any additive or synergistic antitumor effect when combined with the FMD | – | – | – | – | – | –
